According to patent US20190119196A1, “COMPOUNDS FOR THE TREATMENT OF […]” (priority 2016, published 2019):
Structures can show the parent of a compound that is named as a salt. Where two headings read alike, the source gives them in different places.

Columns and labels:
[1] = tested on: L6-myotubes; test: Glucose uptake in differentiated L6-myotubes (3H-2-deoxy-glucose); format: cell-based; conditions: read-out: Biological example 1: glucose uptake, % increase over the basal level
Procedure: (§1) L6-myoblasts were grown in Dulbecco's Modified Eagle's Medium (DMEM) containing 4,5 g/I glucose supplemented with 10% fetal bovine serum, 2 mM L-Glutamine, 50 U/ml penicillin, 50 μg/ml streptomycin and 10 mM HEPES. Cells were plated at 1×10^5 cells per ml in 24-well plates. After reaching 90% confluence the cells were grown in medium containing 2% FBS for 7 days where upon cells differentited into myotubes.
Differentiated L6-myotubes were serum-starved over night in medium containing 0.5% fatty-acid free BSA and stimulated with agonist, […], glucose free medium or PBS and another portion of agonist was added to glucose free medium. […] Cell lysate was mixed with scintillation buffer (Emulsifier Safe, Perkin Elmer and radioactivity detected in a β-counter (Tri-Carb 2800TR, Perkin Elmer). The numerical values in the table are given as % increase over the basal level.

[2] = tested on: L6-myotubes; test: Measurement of intracellular cAMP levels (alpha screen cAMP kit); format: cell-based; conditions: agonist final concentration 1×10^−5, 15 min; differentiated cells; 1 mM IBMX
Procedure: as §1
Differentiated cells were serum-starved over night and stimulated with agonist, final concentration 1×10−^5, for 15 min in stimulation buffer (HBSS supplemented with 1% BSA, 5 mM HEPES and 1 mM IBMX, pH 7,4) The medium was then aspirated and to end the reaction 100 μL of 95% EtOH was added to each well of a 24-well plate and cells were kept in −20° C. over night. The EtOH was let to evaporate and 500 μL of lysis buffer (1% BSA, 5 mM HEPES and 0,3% Tween-20, pH 7.4) was added to each well before put in −80° C. for 30 min and then kept in −20° C. Intracellular cAMP levels were detected using an alpha screen cAMP kit (6760635D from Perkin Elmer). The numerical values in the table are given as % increase over the basal level.

[3] = target: T1, human β2-adrenoceptor (Homo sapiens, UniProt P07550); test: 3H-CGP 12177 whole cell β2 binding
T1 construct: expressed in transfected cells
Procedure: ^3H-CGP 12177 Whole Cell β2 Binding
Chinese Hamster Ovary (CHO) cells stably expressing the human β2-adrenoceptor were grown in Dulbecco's modified Eagle's medium nutrient mix F12 (DMEM/F12) containing 10% fetal calf serum and 2 mM L-glutamine in a 37° C. humidified 5% CO2:95% air atmosphere. The cells were seeded (100 000 cells/mL) into white-sided, clear-bottomed 96-well isoplates and allowed to grow to confluence for the following day's experiment. Next day, the media was removed from each well of the isoplate. Aliquots of the test compounds (10^−2 M in DMSO) were diluted in DMEM/F12 containing 2 mM L-glutamine (serum-free media) to final concentration ranges of 10^−4 M to 10^−10 M and added to each well. The radioligand ^3H-CGP 12177 was diluted in the same medium (˜1 nM final well concentration) and added to each well. Propranolol and CGP 12177 (10 μM) were used to measure non-specific binding. The cells were incubated for 2 hours at 37° C. After incubation, the cells were washed twice by the addition and removal of 200 μL ice-cold phosphate-buffered saline (PBS). Cells were then lysed with Optiphase Supermix cocktail (100 μL/well) and a clear sealant top was applied to the plate. The plate was left overnight in the dark at room temperature, centrifuged (1000 rpm, 1 min) and measured in a MicroBeta2 Microplate Counter (Perkin Elmer) (10 minutes pre-incubation, 2 min counts/well).
All data points on each binding curve were measured in duplicates. Each 96-well plate also contained four determinations of total and non-specific binding. Non-specific binding was determined in the presence of CGP 12177 and propranolol (10 μM). […] All data points are measured in counts per minute (CPM) and converted into disintegrations per minute (DPM) by dividing the count rate (CPM) with the counting efficiency of the instruments detector (57%). The numerical values were obtained by using the GraphPad Prism 7 programme and are given as -log K (pKi) in the table.

[4] = agonist final concentration 1×10^−5, differentiated L6-myotubes, 50 nM 3H-2-deoxy-glucose
[5] = CHO cells stably expressing the human β2-adrenoceptor, ~1 nM 3H-CGP 12177, 2 hours at 37° C., read-out: Biological example 3: -log K (pKi), 3H-CGP 12177 whole cell β2 binding (converted)

T1 sequence (P07550 whole entry): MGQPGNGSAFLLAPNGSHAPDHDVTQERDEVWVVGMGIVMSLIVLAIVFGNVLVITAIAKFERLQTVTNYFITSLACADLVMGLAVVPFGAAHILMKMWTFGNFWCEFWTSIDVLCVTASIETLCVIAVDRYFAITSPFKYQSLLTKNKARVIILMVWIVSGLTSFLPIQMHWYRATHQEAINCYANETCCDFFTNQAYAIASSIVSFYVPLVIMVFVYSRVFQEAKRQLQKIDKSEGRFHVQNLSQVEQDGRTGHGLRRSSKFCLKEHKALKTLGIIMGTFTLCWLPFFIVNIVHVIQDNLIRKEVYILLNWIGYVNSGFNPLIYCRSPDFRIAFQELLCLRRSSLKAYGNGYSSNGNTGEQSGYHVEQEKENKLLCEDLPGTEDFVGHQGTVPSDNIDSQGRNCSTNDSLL

CCCCNCC(O)c1cc(Cl)c(N)c(Cl)c1 (stereo not drawn) [Example 29, 1-(4-Amino-3,5-dichlorophenyl)-2-(butylamino)ethan-1-ol trifluoroacetate]
activation [1]: 48%
Biological example 2: intracellular cAMP levels, % increase over the basal level [2]: 222%
Ki [3]: 0.316 µM

CCCCCCNCC(O)c1ccc(O)cc1 (stereo not drawn) [Example 17, 4-(2-(Hexylamino)-1-hydroxyethyl)phenol acetate]
activation [1, 4]: 26%
Biological example 2: intracellular cAMP levels, % increase over the basal level [2]: 70%
Ki [3, 5]: 6.31 µM

CCCC(C)NCC(O)c1cccc(O)c1 (mixture of isomers) [Example 15, 3-(1-Hydroxy-2-(pentan-2-ylamino)ethyl)phenol]
activation [1, 4]: 31%
Biological example 2: intracellular cAMP levels, % increase over the basal level [2]: 20%
Ki [3, 5]: 0.794 µM

CCCCNCC(O)c1cc(O)cc(O)c1 (stereo not drawn) [Example 25, 5-(2-(Butylamino)-1-hydroxyethyl)benzene-1,3-diol hemisulphate]
activation [1, 4]: 32%
Biological example 2: intracellular cAMP levels, % increase over the basal level [2]: 115%
Ki [3, 5]: 39.8 µM

Oc1ccc(C(O)CNCCCC2CCCCC2)cc1 (stereo not drawn) [Example 21, 4-(2-((3-Cyclohexylpropyl)amino)-1-hydroxyethyl)phenol]
activation [1, 4]: 37%
Biological example 2: intracellular cAMP levels, % increase over the basal level [2]: −16%
Ki [3, 5]: 2 µM

CCCCNCC(O)c1cccc(O)c1 (stereo not drawn) [Example 14, 3-(2-(Butylamino)-1-hydroxyethyl)phenol]
activation [1, 4]: 17%
Biological example 2: intracellular cAMP levels, % increase over the basal level [2]: 20%
Ki [3, 5]: 15.8 µM

CCCCNCC(O)c1ccc(O)cc1 (stereo not drawn) [Example 1, 4-(2-(Butylamino)-1-hydroxyethyl)phenol]
activation [1, 4]: 50%
Biological example 2: intracellular cAMP levels, % increase over the basal level [2]: 1%
Ki [3, 5]: 25.1 µM
